Assay results: patent publication US8063107B2, “Use of trans-pellitorin as flavor substance” (Symrise AG, priority 2002, dated 2011)
“Also recorded” adds a separate entry of the source. Where two headings read alike, the source gives them in different places.

How the values were obtained:
[1] = cited from earlier work
[2] = tested on: group of 6 to 8 testers; test: Tasting of trans-pellitorin in 11 wt. % sugar solution by a group of testers; assay type: in vivo; settings: for sensory impression on tasting: approximately 5 ml swallowed
Description: The trans-pellitorin was dissolved in ethanol and the ethanolic solution was then diluted with an 11 wt. % sugar solution (final concentration: c). For tasting, respectively approximately 5 ml of the sugar solution was respectively swallowed.

Compound | sensory impression ([1]; Lebensm.-Wiss. U.-Technol. 1992, 25, 417-421) | sensory impression on tasting ([2]; c=10 ppm in 11 wt. % sugar solution) | sensory impression on tasting ([2]; c=20 ppm in 11 wt. % sugar solution) | concentration in the final product at which a saliva inducing effect only is observed, no additional sensory impressions ([2]; final product, e.g. finished preparation) | sensory impression in taste research ([2]; taste research, general statement) | sensory impression ([1]; J. Agric. Food Chem. 1981, 29, 115, Fitoterapia 2001, 72, 197) | sensory impression on tasting in the pure state ([1]; pure state, J. Am. Chem. Soc. 1953, 75, 2584-2586)
C/C=C/C=C\CC/C=C/C(=O)NCC(C)C [spilanthol, 2E,6Z,8E-decatrienoic acid-N-isobutylamide, reference compound] | strongly salivation inducing and tingly or prickly; also recorded: spicy-hot and strongly numbing as well as an astringent |  |  |  |  |  | 
CCCCC/C=C/C=C/C(=O)NCC(C)C [trans-pellitorin, 2E,4E-decadienoic acid-N-isobutylamide] |  | salivation inducing, slightly prickly, not spicy hot | salivation inducing, slightly numbing, slightly fatty, weakly fruity, prickly, persistent, not spicy hot | below 20 ppm | pleasant saliva-inducing and slightly prickly sensory impression, with relatively prolonged effect | primarily numbing | besides an elevated saliva flow, a strong burning effect on the tongue
